These results are taken from paper PMC8294059, “Identification and Immune Assessment of T Cell Epitopes in Five Plasmodium falciparum Blood Stage Antigens to Facilitate Vaccine Candidate Selection and Optimization” (Frontiers in Immunology, 2021).

Where a SMILES comes first, the peptide text is derived from it.

The IC50 is the point on the concentration scale where inhibition reaches its midpoint.

Common to all, as to experiment: biochemical
Assay type in all cases: binding

One assay has as its target T1, HLA-DRB1*0401 (Homo sapiens, UniProt P01903+P01911, A100K/A169T/F76Y/I96L/K127E/L162R/M171V/N62H/P40V/Q125Y/R42H/S133A/S149N/S66Y/V115G/V209L/W38E).
T1 construct: purchased
The following applies: binding inhibition assay; NB = non-binder (no dose-dependent inhibition); read-out: DRB1*0401 IC50. Here is the method:
(§1) The binding assay conducted by EpiVax yields an indirect measure of peptide-MHC affinity as it utilizes a competition assay format per the methodology described in Steere et al. ([35]). […] Post incubation, the mixtures are moved to a 96-well plate coated with anti-HLA-DR antibody to capture HLA-peptide complexes. Time-resolved fluorescence measurement of the bound labeled reference peptide complex present in each mixture is detected with a europium-linked probe via fluorescent spectrophotometry using a SpectraMax M5 system. HLA binding affinity of each test peptide is expressed as the percent inhibition of reference peptide binding. Percent inhibition values (across the test peptide titration range) are used to calculate the half maximal inhibitory concentration (IC50) of each test peptide. For these studies, test peptides were assessed using a range of final concentrations from 100,000 nM to 100 nM. The panel of commercially-available HLA-DRB1 allele monomers used includes: *0101, *0301, *0401, *0701, *0801, *1101, *1301 and *1501. EpiVax established HLA-DRB1 binding affinity cutoffs were used to rank the IC50 values.
(§2) In vitro HLA binding assays (step 2 of workflow shown in Figure 1 ) were carried out with the synthesized peptides to verify the EpiMatrix outputs and provide a measure of accuracy for comparing in silico-predicted HLA-DRB1 allele binding to laboratory assessments of HLA-DRB1 allele binding. These assessments were conducted using a competition assay format whereby IC50 values were calculated based on the ability of the test peptide to compete with a labeled, high binding affinity reference peptide for HLA-DRB1 molecule binding. Sequences for the high affinity reference peptides and the negative control peptide, known not to bind any of the HLA-DRB1 molecules, are provided in Table S18 .

The target of another assay is HLA-DRB1*1301 (Homo sapiens, UniProt P01903+P01911, A100E/A169T/K41T/L162R/M171V/P40S/Q125H/Q178H/Q39Y/Q99D/R42S/S66N/T262R/W38E/Y61H). The settings on record: binding inhibition assay; NB = non-binder (no dose-dependent inhibition); read-out: DRB1*1301 IC50. The protocol: as §1, §2
In another assay the target is T2, HLA-DRB1*0101 (Homo sapiens, UniProt P01903+P01911, A100R/D57E/F55L/F60I/F76Y/I96L/L162R/M171V/P40L/Q125E/R42F/V115G/Y59C).
T2 construct: purchased
The following applies: binding inhibition assay; NB = non-binder (no dose-dependent inhibition); read-out: DRB1*0101 IC50. The protocol:
as §1, §2

Another assay deals with T3, HLA-DRB1*1501 (Homo sapiens, UniProt P01903+P01911).
T3 construct: purchased
The following applies: binding inhibition assay; NB = non-binder (no dose-dependent inhibition); read-out: DRB1*1501 IC50. Here is the method: as §1, §2

In the next assay the target is HLA-DRB1*1101 (Homo sapiens, UniProt P01903+P01911, A100R/A169T/A87E/I96F/K41T/L162R/M171V/P40S/Q125H/Q178H/Q39Y/Q99D/R42S/S66Y/T262R/V115G/W38E). The settings on record: binding inhibition assay; NB = non-binder (no dose-dependent inhibition); read-out: DRB1*1101 IC50. Here is the method: as §1, §2
Sequence of HLA-DRB1*1101 (P01903 26-254 limits assumed, other chains not shown): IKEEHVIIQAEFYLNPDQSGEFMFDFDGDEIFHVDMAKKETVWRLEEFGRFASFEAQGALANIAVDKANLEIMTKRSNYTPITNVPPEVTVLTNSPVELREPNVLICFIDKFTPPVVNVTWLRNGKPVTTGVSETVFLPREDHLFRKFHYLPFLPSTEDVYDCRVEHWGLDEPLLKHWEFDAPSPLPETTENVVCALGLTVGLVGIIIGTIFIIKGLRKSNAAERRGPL
The target of another assay is HLA-DRB1*0801 (Homo sapiens, UniProt P01903+P01911, A100R/A103L/A169T/D86S/F76Y/H45Y/I96F/K41T/L162R/M171V/P40S/Q125H/Q178H/Q39Y/Q99D/R218S/R42G/S66Y/V115G/W38E). The following applies: binding inhibition assay; NB = non-binder (no dose-dependent inhibition); read-out: DRB1*0801 IC50. Here is the method:
as §1, §2

A further assay deals with HLA-DRB1*0701 (Homo sapiens, UniProt P01903+P01911, A100R/A102G/A103Q/D57E/D86V/E43K/F76Y/K127E/L162R/M171V/P40G/Q125H/Q99D/R33Q/R42Y/R54Q/S133A/S66F/T210M/V115G/Y107V/Y59L/Y89S). The settings on record: binding inhibition assay; NB = non-binder (no dose-dependent inhibition); read-out: DRB1*0701 IC50. Here is the method:
as §1, §2

The target of another assay is HLA-A*0101 (Homo sapiens, UniProt P04439, A114D/A174V/A182V/D101N/D185E/E176A/E190D/L180R/Q94H/R68K/S129P/T187R/V100A/V91M/W191G). The settings on record: allele A*0101; for IC50 / IC50 (nM), in vitro HLA binding affinity: fluorescence polarization competition; for IC50: read-out: IC50 (nM), in vitro HLA binding affinity. Here is the method:
A cell-free class I HLA binding assay that allows for in vitro quantification of peptide-HLA binding affinity in a competition format was used. In this assay, a fluorescently labeled, high binding, control peptide is loaded onto 384-well ½-area plates along with unlabeled experimental peptides. To remove endogenous peptides and render the HLA A and B molecules receptive to binding, HLA is heated at 53°C for 15 minutes and immediately added to the assay. The mixture is then allowed to stand for three days. Once the mixture has reached steady equilibrium (at 72 hours), displacement of the high binding control peptide is measured through fluorescence polarization. Binding of experimental peptides is expressed as the percent inhibition of the labeled control peptide (experimental fluorescence / control fluorescence, multiplied by 100). The percent inhibition values for each experimental peptide (across a range of molar concentrations) are used to calculate the concentration which inhibits 50% of the labeled control peptide’s specific binding. This value is referred to as the peptide’s IC50.
(In general: In fluorescence polarisation assays a small probe gives low polarisation when free and higher when bound to something large.)

In the case of `CC[C@H](C)[C@H](NC(=O)[C@H](CC(=O)O)NC(=O)[C@H](CC(C)C)NC(=O)[C@H](CCCCN)NC(=O)[C@H](CC(N)=O)NC(=O)[C@H](CCC(=O)O)NC(C)=O)C(=O)N[C@@H](CC(C)C)C(=O)N[C@@H](CC(N)=O)C(=O)N[C@@H](CC(N)=O)C(=O)N[C@@H](CO)C(=O)N[C@@H](CCCCN)C(=O)N[C@@H](Cc1ccccc1)C(=O)N[C@@H](CC(N)=O)C(=O)N[C@@H](CCCCN)C(=O)N[C@@H](CCCNC(=N)N)C(=O)N[C@@H](Cc1c[nH]c2ccccc12)C(=O)N[C@@H](CCCCN)C(N)=O` [EBA175_002] (Ac-ENKLDILNNSKFNKRWK-NH2), the concentration for half-maximal inhibition (IC50) was > 100 µM on HLA-DRB1*0401, 14.2 µM at HLA-DRB1*1301, 11.9 µM on HLA-DRB1*0101 and 13.9 µM at HLA-DRB1*1501.
In the case of `CC[C@H](C)[C@H](NC(=O)[C@H](Cc1ccccc1)NC(=O)[C@H](Cc1c[nH]cn1)NC(=O)[C@H](CC(=O)O)NC(C)=O)C(=O)N[C@@H](CCC(=O)O)C(=O)N[C@@H](C)C(=O)N[C@@H](CO)C(=O)N[C@@H](CCCCN)C(=O)N[C@@H](CCCCN)C(=O)N[C@@H](CCC(=O)O)C(=O)N[C@@H](CO)C(=O)N[C@@H](CCC(N)=O)C(=O)N[C@@H](CC(C)C)C(=O)N[C@@H](CC(C)C)C(N)=O` [EBA175_006] (Ac-DHFIEASKKESQLL-NH2), the IC50 on HLA-DRB1*0401 is > 100 µM; on HLA-DRB1*1301, 74.6 µM; on HLA-DRB1*1101 it was 2.87 µM; on HLA-DRB1*0101, 6.63 µM; at HLA-DRB1*0801, 1.76 µM.
Turning to `CSCC[C@H](NC(=O)[C@@H](NC(=O)[C@H](Cc1c[nH]cn1)NC(=O)[C@H](Cc1ccccc1)NC(=O)CNC(=O)[C@H](Cc1c[nH]cn1)NC(=O)[C@H](CCCCN)NC(C)=O)[C@@H](C)O)C(=O)N[C@@H](CC(N)=O)C(=O)N[C@@H](CC(N)=O)C(=O)N[C@@H](CC(C)C)C(=O)N[C@@H](Cc1c[nH]cn1)C(=O)NCC(=O)N[C@@H](CC(=O)O)C(=O)NCC(=O)N[C@H](C(=O)N[C@@H](CO)C(=O)N[C@@H](CCC(=O)O)C(N)=O)C(C)C` [EBA175_016] (Ac-KHGFHTMNNLHGDGVSE-NH2), the IC50 at HLA-DRB1*0401 was 0.458 µM; on HLA-DRB1*1301, > 100 µM; on HLA-DRB1*1101 it was 8.62 µM; at HLA-DRB1*0101 it was 0.16 µM; at HLA-DRB1*1501 it was 79 µM.
As to `CC[C@H](C)[C@H](NC(=O)[C@H](Cc1ccc(O)cc1)NC(=O)[C@@H](NC(=O)[C@H](CO)NC(=O)[C@H](Cc1c[nH]cn1)NC(C)=O)[C@@H](C)O)C(=O)N[C@@H](CCCCN)C(=O)N[C@@H](CO)C(=O)N[C@@H](Cc1ccc(O)cc1)C(=O)N[C@@H](CC(C)C)C(=O)N[C@@H](CC(N)=O)C(=O)N[C@H](C(=O)N[C@@H](CC(N)=O)C(=O)N[C@H](C(=O)N[C@@H](CC(N)=O)C(=O)N[C@@H](CC(=O)O)C(=O)NCC(=O)N[C@@H](CC(C)C)C(=O)N[C@@H](CCCCN)C(=O)N[C@@H](Cc1ccc(O)cc1)C(N)=O)C(C)C)[C@@H](C)O` [RH5_003] (Ac-HSTYIKSYLNTNVNDGLKY-NH2), the IC50 turned out to be 7.45 µM at HLA-DRB1*0401; 20.1 µM at HLA-DRB1*1301; 58.5 µM on HLA-DRB1*0701; 96.5 µM at HLA-DRB1*1101; 0.282 µM at HLA-DRB1*0101; 0.004 µM on HLA-DRB1*1501.
`CC[C@H](C)[C@H](NC(=O)[C@H](Cc1ccccc1)NC(=O)[C@H](CCCCN)NC(=O)[C@@H](NC(=O)[C@@H](NC(=O)[C@H](CC(=O)O)NC(=O)[C@@H](NC(=O)[C@@H](N)Cc1ccc(O)cc1)[C@@H](C)CC)[C@@H](C)O)[C@@H](C)CC)C(=O)N[C@@H](Cc1c[nH]cn1)C(=O)N[C@@H](CCCCN)C(=O)O` [RH5_406] (H-YIDTIKFIHK-OH): on HLA-A*0101, the IC50 was 1510 nM.
As for `CC[C@H](C)[C@H](NC(=O)[C@@H]1CCCN1C(=O)[C@@H](NC(=O)[C@H](CC(=O)O)NC(=O)[C@H](CC(N)=O)NC(=O)[C@@H](N)Cc1ccccc1)C(C)C)C(=O)N[C@@H](CCCCN)C(=O)N[C@@H](CCSC)C(=O)N[C@@H](CCC(=O)O)C(=O)N[C@@H](Cc1ccc(O)cc1)C(=O)O` [RH5_505] (H-FNDVPIKMEY-OH), the IC50 at HLA-A*0101 turned out to be 498 nM.
Take `CC(=O)N[C@@H](CCC(=O)O)C(=O)N[C@@H](CCC(=O)O)C(=O)NCC(=O)N[C@@H](Cc1ccc(O)cc1)C(=O)N[C@@H](CCCCN)C(=O)N[C@@H](CC(N)=O)C(=O)N[C@H](C(=O)N[C@@H](CCCCN)C(=O)NCC(=O)N[C@@H](CCCCN)C(=O)N[C@@H](CS)C(=O)N[C@H](C(=O)N1CCC[C@H]1C(=O)N[C@@H](CC(=O)O)C(=O)N[C@@H](CC(N)=O)C(=O)N[C@@H](CCCCN)C(N)=O)C(C)C)C(C)C` [RIPR_015] (Ac-EEGYKNVKGKCVPDNK-NH2): the 50% inhibitory concentration (IC50) on HLA-DRB1*0401 was > 100 µM; at HLA-DRB1*1301, > 100 µM; on HLA-DRB1*0701, 9.28 µM; at HLA-DRB1*1101, 32 µM; at HLA-DRB1*0101 it was 1.81 µM; at HLA-DRB1*1501 it was > 100 µM.
For the compound `CC(C)C[C@H](NC(=O)[C@H](Cc1ccc(O)cc1)NC(=O)[C@H](C)NC(=O)[C@H](Cc1ccc(O)cc1)NC(=O)[C@H](CC(=O)O)NC(=O)[C@H](CC(N)=O)NC(=O)[C@@H](N)CCC(=O)O)C(=O)N[C@@H](CC(N)=O)C(=O)N[C@@H](CCCCN)C(=O)N[C@@H](Cc1ccc(O)cc1)C(=O)O` [RIPR_0059] (H-ENDYAYLNKY-OH), the IC50 on HLA-A*0101 worked out at 42200 nM.
Consider DSCVPNTNEY [RIPR_0976], for which the “IC50 (nM), in vitro HLA binding affinity” value at HLA-A*0101 was “Non-binder”.
On to LSDTLQLHED [EBA175_0881], for which the “IC50 (nM)” value at HLA-A*0101 (cell-free competition, fluorescence polarization at 72 hours, Non-binder = no dose-dependent inhibition) is recorded as “Non-binder”.
With NLFEQLSCY [RH5_338], at HLA-A*0101, the “IC50 (nM), in vitro HLA binding affinity” value is on record as “Non-Binder”.
With STDPHTNSNN [RIPR_0545], the “IC50 (nM), in vitro HLA binding affinity” value on HLA-A*0101 is given as “Non-binder”.
